Results reported in patent publication US9409866B2, “Pyridine-2-amides useful as CB2 agonists” (Hoffmann-La Roche Inc., priority 2012, dated 2016).
Like-named read-outs stand apart in the source and are kept apart here.

Tests used:
human CB2 receptors = human CB2 receptors (Homo sapiens (Human), UniProt P34972); assay: functional cAMP assay, CHO cells expressing human CB2; format: cell-based
Method in brief: (§1)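 CHO cells expressing human CB1 or CB2 were preincubated 30 min at 30 °C in Krebs Ringer bicarbonate with 1 mM IBMX, then exposed to compound 30 min at 30 °C. cAMP quantified by TR-FRET competition (Alexa700 antibody/ruthenium-cAMP) against a 10 μM–0.13 nM standard curve; EC50 derived.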

human CB1 receptors = human CB1 receptors (Homo sapiens (Human), UniProt P21554); assay: functional cAMP assay, CHO cells expressing human CB1; format: cell-based
Chain of human CB1 receptors (P21554 whole entry): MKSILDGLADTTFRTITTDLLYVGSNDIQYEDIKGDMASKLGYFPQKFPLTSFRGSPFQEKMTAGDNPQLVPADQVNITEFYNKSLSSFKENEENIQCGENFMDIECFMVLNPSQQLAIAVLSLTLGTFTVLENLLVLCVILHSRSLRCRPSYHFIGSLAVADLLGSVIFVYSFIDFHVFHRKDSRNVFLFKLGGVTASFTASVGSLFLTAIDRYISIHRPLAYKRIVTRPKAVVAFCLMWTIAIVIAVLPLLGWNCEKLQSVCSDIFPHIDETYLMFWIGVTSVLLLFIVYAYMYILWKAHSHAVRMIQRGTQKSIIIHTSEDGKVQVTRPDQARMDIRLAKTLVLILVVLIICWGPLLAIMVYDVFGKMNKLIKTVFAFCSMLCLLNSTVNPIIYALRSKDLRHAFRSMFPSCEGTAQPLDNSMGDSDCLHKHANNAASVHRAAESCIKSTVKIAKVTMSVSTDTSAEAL
Method in brief: as §1

[1] = functional cAMP assay, CHO cells expressing human CB1; read-out: Human CB1 EC50
[2] = Human CB1 EC50 (uM), functional cAMP assay, CHO cells expressing human CB1

Chain of human CB2 receptors (P34972 whole entry): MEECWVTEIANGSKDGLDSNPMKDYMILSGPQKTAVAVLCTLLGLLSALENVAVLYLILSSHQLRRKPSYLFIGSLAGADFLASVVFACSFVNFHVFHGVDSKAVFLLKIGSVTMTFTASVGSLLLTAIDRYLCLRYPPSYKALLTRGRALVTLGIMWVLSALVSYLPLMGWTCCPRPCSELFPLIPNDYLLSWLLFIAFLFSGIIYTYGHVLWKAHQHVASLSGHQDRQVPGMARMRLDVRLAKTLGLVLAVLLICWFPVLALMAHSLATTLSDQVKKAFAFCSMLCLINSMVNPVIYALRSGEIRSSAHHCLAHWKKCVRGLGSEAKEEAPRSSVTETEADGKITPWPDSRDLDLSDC

Structure (SMILES) | EC50 (human CB2 receptors; read-out: Human CB2 EC50) [µM] | EC50 (human CB1 receptors; [1]) [µM] | EC50 (human CB2 receptors; Human CB2 EC50 (uM)) [µM] | EC50 (human CB1 receptors; [2]) [µM] | EC50 (human CB1 receptors; read-out: Human CB1 EC50; functional cAMP assay, CHO cells expressing human CB1) [µM]
Cc1nc(C(C)(NC(=O)c2cc(OCC(F)(F)F)c(C3CC3)cn2)C(=O)N2CC(F)(F)C2)no1 (stereo not shown) [Example 147, 5-cyclopropyl-N-[1-(3,3-difluoroazetidin-1-yl)-2-(5-methyl-1,2,4-oxadiazol-3-yl)-1-oxopropan-2-yl]-4-(2,2,2-trifluoroethoxy)pyridine-2-carboxamide] | 0.0454 | > 10 | – | – | –
CNC(=O)C(C)(NC(=O)c1cc(OCC(F)(F)F)c(C2CC2)cn1)c1noc(C)n1 (single isomer, unassigned) [Example 187, 5-cyclopropyl-N-[1-(methylamino)-2-(5-methyl-1,2,4-oxadiazol-3-yl)-1-oxopropan-2-yl]-4-(2,2,2-trifluoroethoxy)pyridine-2-carboxamide] | – | – | 0.416 | > 10 | –
Cc1nc(C(C)(CC2CC2)NC(=O)c2cc(OCC(F)(F)F)c(C3(F)COC3)cn2)no1 (single isomer, unassigned) [Example 135, N-[1-cyclopropyl-2-(5-methyl-1,2,4-oxadiazol-3-yl)propan-2-yl]-5-(3-fluorooxetan-3-yl)-4-(2,2,2-trifluoroethoxy)pyridine-2-carboxamide] | – | – | 0.144 | > 10 | –
CC(C)(C)NC(=O)c1cc(OCC(F)(F)F)c(C2CC2)cn1 [Example 70, 5-Cyclopropyl-4-(2,2,2-trifluoro-ethoxy)-pyridine-2-carboxylic acid tert-butylamide] | 0.0104 | > 10 | – | – | –
Cc1nc(C(C)(NC(=O)c2cc(OCC(F)(F)F)c(C3(F)CCC3)cn2)C2CC2)no1 (single isomer, unassigned) [Example 307, N-(1-cyclopropyl-1-(5-methyl-1,2,4-oxadiazol-3-yl)ethyl)-5-(1-fluorocyclobutyl)-4-(2,2,2-trifluoroethoxy)picolinamide] | – | – | 0.0034 | 0.032 | –
Cc1nc(C(C)(NC(=O)c2cc(O[C@H](C)C(F)(F)F)c(C3CC3)cn2)C2CC2)no1 (single isomer, unassigned; epimer b) [Example 73] | 0.00025 | 0.017 | – | – | –
Cc1nc(C(C)(CC2CC2)NC(=O)c2cc(OCCF)c(C3CC3)cn2)no1 (single isomer, unassigned) [Example 157, 5-cyclopropyl-N-[1-cyclopropyl-2-(5-methyl-1,2,4-oxadiazol-3-yl)propan-2-yl]-4-(2-fluoroethoxy)pyridine-2-carboxamide] | – | – | 0.0036 | – | > 10
CC(C)C[C@@](C)(CO)NC(=O)c1cc(OCC2CC2)c(Cl)cn1 [Example 27, (−)-5-Chloro-4-cyclopropylmethoxy-pyridine-2-carboxylic acid (1-hydroxymethyl-1,3-dimethyl-butyl)-amide] | 0.0224 | > 10 | – | – | –
Cc1nc(C(C)(CS(C)(=O)=O)NC(=O)c2cc(OCC(F)(F)F)c(C3CCC3)cn2)no1 (single isomer, unassigned) [Example 124, 5-cyclobutyl-N-[1-methyl-1-(5-methyl-1,2,4-oxadiazol-3-yl)-2-methylsulfonyl-ethyl]-4-(2,2,2-trifluoroethoxy)pyridine-2-carboxamide] | – | – | 0.0159 | > 10 | –
Cc1nc(C(C)(CC2CC2)NC(=O)c2cc(OC(C)CF)c(C3CC3)cn2)no1 (single isomer, unassigned) [Example 287, 5-cyclopropyl-N-(1-cyclopropyl-2-(5-methyl-1,2,4-oxadiazol-3-yl)propan-2-yl)-4-(1-fluoropropan-2-yloxy)picolinamide] | – | – | 0.0014 | > 10 | –
NC(=O)CC1(NC(=O)c2cc(OCC(F)(F)F)c(N3CC(F)(F)C3)cn2)CS(=O)(=O)C1 [Example 264, N-[3-(2-amino-2-oxoethyl)-1,1-dioxothietan-3-yl]-5-(3,3-difluoroazetidin-1-yl)-4-(2,2,2-trifluoroethoxy)pyridine-2-carboxamide] | 0.178 | > 10 | – | – | –
